The source made the active and inactive calls. No rule for the calls is given here.
These compounds were tested against Influenza A virus M2 proton channel (A/TW/4845/1999 H1N1) (assay: M2 proton channel binding, NMR based, influenza A virus H1N1 strain (AID 1549)). Conditions: NMR binding screen, M2 protein.

SMILES | Kd
O=C(O)c1onc2ccccc12 | > 4 mM (inactive)
COc1ccc2c(c1)O[C@@H]1COc3cc(OC)c(OC)cc3[C@@H]1C2=O | > 4 mM (inactive)
COc1ccc(C2(C)NC(=O)NC2=O)cc1 (centres undefined) | > 4 mM (inactive)
c1ccc(Cc2nnc3sc(-c4ccncc4)nn23)cc1 | > 4 mM (inactive)
COc1c(C)c2c(c(O)c1C/C=C(\C)CCC(=O)O)C(=O)OC2 | > 4 mM (inactive)
CC(=O)c1cccc(N=C2NC(=O)CS2)c1 | > 4 mM (inactive)
CC1(C)C2CC(=O)[C@]3(C)C(CC[C@@]4(C)[C@H](c5ccoc5)OC(=O)[C@H]5O[C@]543)[C@@]2(C)C=C[C@@H]1O (some centres undefined) | > 4 mM (inactive)
Nc1ccc(CN2CCOCC2)cc1 | > 4 mM (inactive)
CC1=NNC(=O)C1CCc1ccncc1 (centres undefined) | > 4 mM (inactive)
NN1C(=O)/C(=C/c2ccc(O)c(O)c2)SC1=S | > 4 mM (inactive)
N#CCCn1ccnc1-c1ccccc1 | > 4 mM (inactive)
NC(=O)c1ccccc1N1CCCCC1 | > 4 mM (inactive)
CC1(c2ccncc2)NC(=O)NC1=O (centres undefined) | > 4 mM (inactive)
c1cc2c(cc1[C@H]1OC[C@H]3[C@@H]1CO[C@H]3c1ccc3c(c1)OCO3)OCO2 | > 4 mM (inactive)
CN1C(=O)N(C)C2NC(=O)NC21 (centres undefined) | > 4 mM (inactive)
COC(=O)c1ccccc1C | > 4 mM (inactive)
CC1SC(=NC(=O)c2ccco2)NC1=O (centres undefined) | > 4 mM (inactive)
Nc1cc(C(F)(F)F)ccc1N1CCOCC1 | > 4 mM (inactive)
CC1=CC(=O)C2C(C)(C)CCC[C@]2(C)[C@@]1(O)CCc1ccoc1 (some centres undefined) | > 4 mM (inactive)
CC(=O)CC1(O)C(=O)Nc2ccccc21 (centres undefined) | > 4 mM (inactive)
COCC(=O)Nc1ccc(F)cc1F | > 4 mM (inactive)
C/C(=C\CO)CC[C@H](C)CCC[C@H](C)CCCC(C)C | > 4 mM (inactive)
CC(=O)Nc1ccccc1-c1ccccc1NC(C)=O | > 4 mM (inactive)

SMILES | Kd
Cc1ccc(CNc2ccc(O)cc2)cc1 | > 4 mM (inactive)
O=C(NC1CCS(=O)(=O)C1)c1ccccc1 (centres undefined) | > 4 mM (inactive)
Cc1nn2c(=O)/c(=C/c3cccc(F)c3)sc2nc1=O | > 4 mM (inactive)
Cc1cc(O)cc(O)c1C(=O)O | > 4 mM (inactive)
CC(=O)Nc1ccc(C(=O)NC2=NCCS2)cc1 | > 4 mM (inactive)
OCC1=Cc2ccccc2OC1 | > 4 mM (inactive)
C=C1C([C@]2(C)C(CC(=O)OC)[C@@](C)(COC(C)=O)OC(=O)C[C@@H]2OC(C)=O)[C@@H](OC=O)[C@H](OC(=O)C(O)C(C)CC)[C@@]2(C)[C@H](c3ccoc3)CC(=O)C12O (some centres undefined) | > 4 mM (inactive)
Cc1occc(=O)c1O | > 4 mM (inactive)
CC(=O)Nc1ccc(N2C(=O)C=CC2=O)cc1C | > 4 mM (inactive)
O=C(Nc1cccnc1)c1ccc(Br)s1 | > 4 mM (inactive)
C=C1C(=O)OC2CC1C(OC(C)=O)C/C(C)=C/CC/C(C)=C/CC[C@]2(C)O (some centres undefined) | > 4 mM (inactive)
O=C(c1ccc(F)cc1)N1CCOCC1 | > 4 mM (inactive)
O=c1c[n+]([O-])c2ccccc2n1OCc1ccccc1 | > 4 mM (inactive)
Nc1ccc(-c2csnn2)cc1 | > 4 mM (inactive)
c1ccc(C[N+]23CCN(CC2)CC3)cc1 | > 4 mM (inactive)
C=C(C)C1CC=C(CO)CC1 (centres undefined) | > 4 mM (inactive)
O=c1[nH]c(NCCO)nnc1Cc1ccccc1 | > 4 mM (inactive)
S=c1nc(C2CC2)[nH]c2ccccc12 | > 4 mM (inactive)
Nc1cccc(S(=O)(=O)N2CCCC2)c1 | > 4 mM (inactive)
CC(C)c1ccc2c(c1)CCC1C(C)(C(N)=O)CCCC21C (centres undefined) | > 4 mM (inactive)
O=C(NCCO)c1cc2ccccc2cc1O | > 4 mM (inactive)
COc1ncnc(N)c1[N+](=O)[O-] | > 4 mM (inactive)
CN(C)C(=S)Nc1nc2ccccc2s1 | > 4 mM (inactive)

SMILES | Kd
Nc1ccc(N2CCCCC2)cc1 | > 4 mM (inactive)
N/N=C1\CCCc2c1no[n+]2[O-] | > 4 mM (inactive)
Nc1ccc(Cc2ccc(N)cc2)cc1 | > 4 mM (inactive)
Cc1c(CO)cnn1-c1ccccc1 | > 4 mM (inactive)
CCOC(=O)c1snnc1-c1ccccc1 | > 4 mM (inactive)
Cc1cc(C)cc(C(=O)N2CCC(C(N)=O)CC2)c1 | > 4 mM (inactive)
O=c1nc(C(F)(F)F)nc2ccccn12 | > 4 mM (inactive)
O=C1CC(=O)N(c2ccccc2)C(=O)N1 | > 4 mM (inactive)
CCOC(=O)c1c(-c2ccncc2)csc1N | > 4 mM (inactive)
Cn1c(-c2ccccc2F)n[nH]c1=S | > 4 mM (inactive)
CC(=O)O[C@@H]1CC2C(C)(C)C(=O)C=C[C@]2(C)C2CC[C@]3(C)C(=CC(=O)O[C@H]3c3ccoc3)[C@@]21C (some centres undefined) | > 4 mM (inactive)
CC(=O)Nc1cc(C(N)=O)cc(C(N)=O)c1 | > 4 mM (inactive)
N#Cc1nc(-c2ccccc2Cl)oc1N1CCOCC1 | > 4 mM (inactive)
Cn1ccc(NC(=S)NC2CCCC2)n1 | > 4 mM (inactive)
CC1(C)N([O-])c2cc([N+](=O)[O-])ccc2[N+]1=O | > 4 mM (inactive)
CCN(CC)S(=O)(=O)c1ccc(F)cc1 | > 4 mM (inactive)
CCOC(=O)c1cc(C)[nH]n1 | > 4 mM (inactive)
N#Cc1cc2ccccc2nc1N | > 4 mM (inactive)
CNc1nc(C)nc(-n2nc(C)cc2C)n1 | > 4 mM (inactive)
O=C(Nc1ccc2c(c1)OCO2)c1c(F)cccc1F | > 4 mM (inactive)
CC(=O)Nc1cccc(-c2nnc(-c3ccccc3)o2)c1 | > 4 mM (inactive)
CC1CC[C@@]2(OC1)O[C@H]1CC3C4CC[C@@H]5C[C@@H](O)CC[C@]5(C)C4CC[C@]3(C)[C@H]1[C@@H]2C (some centres undefined) | > 4 mM (inactive)
O=C(Nc1ccc(Cl)cc1)N1CCCC1 | > 4 mM (inactive)

SMILES | Kd
NCc1ccccc1N1CCCCC1 | > 4 mM (inactive)
C[C@H]1[C@H]2CCC3C4CC=C5C[C@@H](N(C)C)CC[C@]5(C)C4CC[C@@]32CN1C (some centres undefined) | > 4 mM (inactive)
Nc1nonc1-c1nc2ccccc2[nH]1 | > 4 mM (inactive)
CN=C(c1ccc([N+](=O)[O-])cc1)N(C)C | > 4 mM (inactive)
CN1CCC(NC(=O)c2c(F)cccc2Cl)CC1 | > 4 mM (inactive)
CC(=O)c1cccc(NS(=O)(=O)N2CCCCC2)c1 | > 4 mM (inactive)
O=C1CC(C(=O)O)c2ccccc21 (centres undefined) | > 4 mM (inactive)
C[C@H]1C(=O)CCC2[C@]3(C)CC[C@@]4(C)C5CC(C)(C)CC[C@]5(C)CC[C@]4(C)C3CC[C@@]21C (some centres undefined) | > 4 mM (inactive)
CNC(=O)n1ccc(C(=O)N2CCCCC2)n1 | > 4 mM (inactive)
O=C(O)c1cc(O)c2c(c1)[C@@H]([C@H]1c3cc(C(=O)O)cc(O)c3C(=O)c3c(O[C@H]4O[C@H](CO)[C@@H](O)[C@H](O)[C@H]4O)cccc31)c1cccc(O[C@H]3O[C@H](CO)[C@@H](O)[C@H](O)[C@H]3O)c1C2=O | > 4 mM (inactive)
CSc1ccn(CCC(=O)O)c(=O)n1 | > 4 mM (inactive)
CC(=O)c1ccc(-n2ccnc2)cc1 | > 4 mM (inactive)
CC(C)CCCC(C)[C@H]1CCC2C3CC=C4CC(=O)CC[C@]4(C)C3CC[C@@]21C (some centres undefined) | > 4 mM (inactive)
O=c1[nH]nc(Cc2ccncc2)c2ccccc12 | > 4 mM (inactive)
C=C1C2CC[C@@]3(C)[C@H](c4ccoc4)OC(=O)C[C@]13O[C@H]1CC(=O)C(C)(C)[C@H](C(OC(C)=O)C(=O)OC)[C@@]21C (some centres undefined) | > 4 mM (inactive)
Nc1ncnc(NC2CCS(=O)(=O)C2)c1[N+](=O)[O-] (centres undefined) | > 4 mM (inactive)
O=C1NC(=O)C(C2SC(=O)NC2=O)S1 (centres undefined) | > 4 mM (inactive)
COc1cc(OC)c(OC)cc1C=O | > 4 mM (inactive)
COC(=O)c1noc(C)c1C(C)=O | > 4 mM (inactive)
O=C(Oc1ccc(-c2nnco2)cc1)N1CCCCC1 | > 4 mM (inactive)
C/C=C(\C)c1nnc(NC(=O)C(C)C)s1 | > 4 mM (inactive)
O=C(NCc1cccs1)c1nn2cccnc2c1Cl | > 4 mM (inactive)
CCN1C[C@@]2(COC)C3[C@@H](OC)[C@H]4[C@@H]1[C@]3(C(OC)C[C@H]2O)C1C[C@@]2(O)[C@H](OC(=O)c3ccccc3)C1[C@]4(OC(C)=O)[C@@H](O)[C@@H]2OC (some centres undefined) | > 4 mM (inactive)

SMILES | Kd
O[C@H]1C=C2CCN3Cc4cc5c(cc4C(C23)[C@@H]1O)OCO5 (some centres undefined) | > 4 mM (inactive)
CC(NC(=O)C1CCCCC1)C(=O)NC1=NCCS1 (centres undefined) | > 4 mM (inactive)
Nc1nnc(-c2ccncc2)s1 | > 4 mM (inactive)
CC1(C)C(=O)C=C[C@@]2(C)C1CC(=O)[C@]1(C)C2CC[C@@]2(C)[C@H](c3ccoc3)OC(=O)[C@H]3O[C@]321 (some centres undefined) | > 4 mM (inactive)
NCCC(=O)N[C@@H](Cc1cnc[nH]1)C(=O)O | > 4 mM (inactive)
Cn1ncc(N2CCOCC2)c(Cl)c1=O | > 4 mM (inactive)
Cc1nnc2sc(-c3ccco3)nn12 | > 4 mM (inactive)
CCSc1n[nH]c(=O)[nH]c1=O | > 4 mM (inactive)
Cc1cc(C)n(-c2ccc(N)cc2)n1 | > 4 mM (inactive)
OCC12COC3c4ccccc4C(OC1)N32 (centres undefined) | > 4 mM (inactive)
COc1cc2nc(N3CCNCC3)nc(N)c2cc1OC | > 4 mM (inactive)
O=C1C2CCCCC2C(=O)N1Cc1cccnc1 (centres undefined) | > 4 mM (inactive)
NCC(N)C(=O)c1ccccc1 (centres undefined) | > 4 mM (inactive)
c1cc2n(c1)CCNC2c1ccncc1 (centres undefined) | > 4 mM (inactive)
Cn1cc(Cl)c(C(=O)NC2CCCC2)n1 | > 4 mM (inactive)
O=C(O)c1cccnc1N1CCCC1 | > 4 mM (inactive)
Nc1ccc2[nH]ccc2c1 | > 4 mM (inactive)
O=C(CSc1ccc(Cl)cc1)N1CCOCC1 | > 4 mM (inactive)
COc1ccc(S(N)(=O)=O)cc1 | > 4 mM (inactive)
O=C1CC[C@]23/C=C/C(=O)NCCCCNCCCNC(=O)/C=C/c4ccc(c2c4)O[C@@H]3C1 | > 4 mM (inactive)
CSc1ccc(S(=O)(=O)N2CCCC2)cc1 | > 4 mM (inactive)
O=C(Nc1ccccc1)NC1CCS(=O)(=O)C1 (centres undefined) | > 4 mM (inactive)
